Molecules are shown by their SMILES. pIC50: −log10 of the molar value.

For series [1], the system named is albino rabbits. Kind of series: Evaluation of ocular irritation. It counts as in vivo, rabbit. As to the method:
Thirty albino rabbits were randomly divided into five groups. Each rabbit was dosed in the conjunctival sac of the right eye topically every ten minutes for one hour (six doses) with 50 μL of 0.0%, 0.3%, 0.5%, 1.0% and 2% of test compound, in 0.9% saline solution. The treated eye of each rabbit was examined for indications of ocular irritation, including swelling, discharge, redness, iritis of conjunctiva, eyelid, iris as well as opacity and involvement of the cornea. Individual scores were added to determine the degree of slight, moderate or severe irritation. Ocular observations were made before the treatment, one hour after the first and sixth instillation and then 1, 2, 3, 4 and 7 days, using a slit lamp.

The nature of series [2]: Ocular bioavailability (aqueous humor levels by HPLC). It counts as in vivo. The following applies: single instillation into conjunctival sac. As to the method: Three rabbits were used per time point. The […] test substance was administered in a single instillation using a micropipette into the conjunctival sac of the right and the left eyes. The rabbits were anesthetized with an intramuscular injection of Imalgène® 1000 (ketamine 32 mg/kg), and Rompun® (xylasine 7.5 mg/kg). They were then desanguinated by cardiac puncture and thereafter euthanized by an overdose of pentobarbital. Immediately after death, the eyes were micro-dissected to obtain: cornea (C), aqueous humor (AH), and iris-ciliary body (ICB). All samples were stored at −80° C. Only aqueous humor (AH) samples were analyzed by HPLC.

Series [3] can be described thus: Accelerated stability test of 0.25% solutions in acetate buffer, HPLC. It counts as physicochemical. To be noted: for projected shelf-life of eye drop formulation: at room temperature, projected from the accelerated test. As to the method: An accelerated stability test was conducted on 0.25% solutions of compounds 6, 7, and 8 (Example 2) at 40° C. for 1, 2, 3, 4, 8 and 12 weeks and monitored for the disappearance of the prodrugs and appearance of the parent compound by HPLC analysis. The parent compound (referred to hereinafter as compound 4) has the formula: [drawing 47]
The respective compounds were dissolved in an acetate buffer, pH 3.5 (0.018% sodium acetate, 0.135% acetic acid, 0.9% sodium chloride in water for injection) to obtain 0.25% solution. The stability of the compounds was determined at 40° C. for 1, 2, 3, 4, 8, and 12 weeks. The concentration of the parent compound as well as the concentrations of the prodrug compounds 6, 7, and 8 at each time point by HPLC method.

Series [4] relates to albino rabbits. Description: Corneal anesthesia measurements (Cochet's esthesiometer). It counts as in vivo, rabbit. The procedure:
The effect of a 50 μl single instillation of 0.3%, 0.5%, 1.0% and 2.0% solution of compound 7 on corneal anesthesia, after a single instillation in the conjunctival sac of the right eyes of albino rabbits (N=5) was measured using a Cochet's esthesiometer (nylon thread: 0.12 mm diameter, 10 mm long). Corneal anesthesia was evaluated by the number of corneal mechanical stimuli necessary to induce a blinking reflex. The effect of drug solutions was compared with sterile 0.9% NaCl treated animals (control group) and 0.4% oxybuprocaine (Novesine®).

The target in series [5] is Human recombinant adrenergic beta-1 (Homo sapiens, UniProt P08588). Kind of series: Human recombinant adrenergic beta-1 radioligand binding assay ([125I]Cyanopindolol). The following applies: [125I]Cyanopindolol radioligand; read-out: Binding efficacy IC50. The procedure: Human recombinant adrenergic beta-1 Assays (Radioligand Binding) were conducted according to the procedure described by Feve, B., et al., Proc. Natl. Acad. Sci. USA, 91, 5677, 1994 using [[^125I]]Cyanopindolol as a radioligand. The results are expressed in IC50 (nM). (Table B)
Human recombinant adrenergic beta-1, sequence (P08588 whole entry): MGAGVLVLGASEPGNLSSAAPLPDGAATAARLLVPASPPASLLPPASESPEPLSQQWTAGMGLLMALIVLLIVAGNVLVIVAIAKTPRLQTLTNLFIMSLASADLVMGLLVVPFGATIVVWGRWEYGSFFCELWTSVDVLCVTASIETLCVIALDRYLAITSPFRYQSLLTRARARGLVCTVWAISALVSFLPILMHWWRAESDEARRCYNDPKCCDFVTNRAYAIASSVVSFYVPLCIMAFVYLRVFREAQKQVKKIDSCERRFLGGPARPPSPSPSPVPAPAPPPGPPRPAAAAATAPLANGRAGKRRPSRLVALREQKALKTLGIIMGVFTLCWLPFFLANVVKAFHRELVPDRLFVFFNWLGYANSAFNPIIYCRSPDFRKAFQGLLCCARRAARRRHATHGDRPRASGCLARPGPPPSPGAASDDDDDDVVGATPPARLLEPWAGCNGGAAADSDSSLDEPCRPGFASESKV

With `Cc1cc(O)c(O)cc1C(=O)OCC(CNC(C)(C)CNC(=O)C1CCOC1)OC(=O)C(C)(C)C` (stereo not shown) [Compound 6, reference compound], in the series with albino rabbits [1] (at 1% concentration), the ocular irritation result was “moderate irritation”. In series [2], the “level of the prodrug itself in aqueous humor” value is given as “below the detection limit”. For the same compound, the “projected shelf-life of eye drop formulation” value (“projected shelf-life” below) in series [3] stood at 2.6 months. For the same compound, the corneal sensitivity loss entry in the series on albino rabbits [4] (at 1%) is on record as “complete corneal sensitivity loss”.
As for `Cc1cc(O)c(O)cc1C(=O)OCC(CNC(C)(C)CNC(=O)C1CCOC1)OC(=O)C1(C)CC1` (stereo not shown) [Compound 7, 4,5-Dihydroxy-2-methyl-benzoic acid 3-{1,1-dimethyl-2-[(tetrahydro-furan-3-carbonyl)-amino]-ethylamino}-2-(1-methyl-cyclopropanecarbonyloxy)-propyl ester], the ocular irritation result in the series on albino rabbits [1] (topical, six times every ten minutes at 0.3%, 0.5%, 1.0% and 2.0%, right conjunctival sac, vs 0.9% saline control) was “no ocular irritation”. Besides, the “level of the prodrug itself in aqueous humor” value in series [2] is “also present in aqueous humor”. For the same compound, in series [3] (0.25% solution, 40° C., pH 3.5, up to 12 weeks), the “relative stability (percent degradation time course, FIG. 1)” value is on record as “most stable”. The “projected shelf-life” value in series [3] is “at least 18 months”. For the same compound, the “corneal sensitivity (local anesthetic activity)” value with albino rabbits [4] (single 50 μl instillation of 0.3%, 0.5%, 1.0% and 2.0% solution, compared to 0.4% oxybuprocaine) is “no corneal sensitivity (local anesthetic activity)”.
Turning to `Cc1cc(O)c(O)cc1C(=O)OCC(CNC(C)(C)CNC(=O)C1CCOC1)OC(=O)C1CC1(C)C` (stereo not shown) [Compound 8, 4,5-dihydroxy-2-methyl-benzoic acid 2-(2,2-dimethyl-cyclopropanecarbonyloxy)-3-{1,1-dimethyl-2-[(tetrahydro-furan-3-carbonyl)-amino]-ethylamino}-propyl ester], the “projected shelf-life” value in series [3] stood at 7.9 months.
As for `Cc1cc(O)c(O)cc1C(=O)OC[C@@H](O)CNC(C)(C)CO` [Compound 15, (S)-4,5-dihydroxy-2-methyl-benzoic acid 2-hydroxy-3-(2-hydroxy-1,1-dimethyl-ethylamino)-propyl ester], in series [5], the pIC50 was 7.41.
Still for that read-out and setting: with `Cc1cc(O)c(O)cc1C(=O)OC[C@@H](O)CNC(C)(C)COC(=O)C(C)(C)C` [Compound 17, (S)-4,5-bis-dihydroxy-2-methyl-benzoic acid 3-[2-(2,2-dimethyl-propionyloxy)-1,1-dimethyl-ethylamino]-2-hydroxy-propyl ester] the figure was 7.92.
For the compound `Cc1cc(O)c(O)cc1C(=O)OC[C@@H](O)CNC(C)(C)COC(=O)C1CCOC1` (stereo partly drawn) [Compound 19, (S)-Tetrahydro-furan-3-carboxylic acid 2-[3-(4,5-dihydroxy-2-methyl-benzoyloxy)-2-hydroxy-propylamino]-2-methyl-propyl ester], the pIC50 in series [5] is 8.19.

The pIC50 is −log10 of the IC50, conventionally taken in molar units.

For the origin of these results see US20070254950A1, “Oculoselective Drugs and Prodrugs” (Othera Pharmaceuticals, Inc., priority 2004, published 2007).
